Laboratory results as given in patent publication US10300092B2, “Bee bloom compositions, methods of extraction and uses thereof” (KANE, Penny Coleen, priority 2011, dated 2019).

Tested on: sensitized rat intestine
Experiment: In vitro anaphylaxis: ovalbumin (antigen)-induced contractile response of sensitized rat intestine in organ bath
Type: cell-based
Details: control peptide feG 10^−8 M
Method: Data are expressed as the mean +/− standard error. The data were analyzed using Student's t test for paired samples. Significant differences were accepted if p <0.05. Outlier analysis was performed using a modified Z-score that uses the median of absolute deviation A Z-score with an absolute value of greater than 4.0 was labeled as a potential outlier, and the corresponding data value was excluded.
Male Sprague Dawley rats (Charles River Laboratories, Montreal, QC) of initial weights of 150 g were maintained with lights on from 700 to 1900 h and given food and water ad libitum. The rats were sensitized to 1 mg ovalbumin (OA) using 50 ng of pertussis toxin (Sigma-Aldrich, St. Louis, Mo.) as an adjuvant.
Five to eight weeks following sensitization, the terminal duodenum of the rats was excised and 1 cm sections were mounted in 25 ml organ baths, containing bicarbonate Krebs′ buffer, with 1.0 g of tension. The isometric force generated in response to OA and carbachol (CAR; (2-[(aminocaronyl)oxyl-N,N,N-trimethylethanaminium), a cholinergic agonist, (Sigma-Aldrich) was measured using a Grass Force Displacement Transducer FTO3 (Quincy, MA>. Data were recorded with PolyView software (Polybytes, Inc., Cedar Rapids, Iowa). The tissues were allowed to equilibrate for 30 min during which they were washed several times with buffer, and applied tension was adjusted.
Eight tissue segments were mounted in separate tissue baths, with one tissue segment serving to evaluate if the intestinal tissues elicit a contractile response to the antigen. […] In the absence of a contractile response to antigen the tissues were discarded, and another animal taken.
Once peak contractile responses were attained the tissues were washed three times, baseline re-established and peak contractile response to 10^−5M CAR obtained. The mucosa was then scraped from the tissue, and the mass of the muscle determined. Responses were determined as grams of force/mg wet tissue.
Contractile responses to OA and CAR were measured at peak contraction, and calculated as grams of force per gram wet tissue. Results are expressed in three formats: • i) the amplitude of the OA-induced contractile response (grams of force/mg wet tissue), • ii) the ratio of the Bee Bloom response to the OR response (Bee Bloom/OA) (i.e. animal matched control), • iii) the ratio of the OA and CAR-induced contractile responses (ONCAR) (i.e. tissue matched controls).

D-phenylalanine-D-glutamate-Glycine [control]
inhibition of antigen-induced contractions (FIGS. 1 and 2): significantly inhibited
inhibition of antigen-induced contractions, ratio to OA response, animal matched control (FIG. 3): significantly inhibited
inhibition of the OA:CAR ratio, tissue matched controls (FIG. 4): did not significantly inhibit
inhibition of antigen-induced contractions (stated as closely matched by Bee Bloom): ~−40%
